Experimental data reported in patent publication US20100279327A1, “METHOD OF TREATING DISEASES WITH PARP INHIBITORS” (BiPar Sciences, Inc., priority 2006, published 2010).

Test system: PARP1 (poly (ADP-ribose) polymerase family, member 1)
Assay: PARP1 mRNA expression, Affymetrix human genome GeneChip (probe set 208644_at), Diff/X and e-Northern
Details: Normal; for PARP1 expression, Experiment Mean: patients taking the medication, signal intensity of 208644_at; for PARP1 Fold change (FC): patients taking vs patients not taking the medication
Source text: GeneChip arrays have been widely used for monitoring mRNA expression in many areas of biomedical research. The high-density oligonucleotide array technology allows researchers to monitor tens of thousands of genes in a single hybridization experiment as they are expressed differently in tissues and cells. The expression profile of a mRNA molecule of a gene is obtained by the combined intensity information from probes in a probe set, which consists of 11-20 probe pairs of oligonucleotides of 25 by in length, interrogating a different part of the sequence of a gene.
The gene expressions were assessed using the Affymetrix human genome genechips (45,000 gene transcripts covering 28,473 UniGene clusters). Approximately 5 μg total RNA from each sample were labeled using high yield transcript labeling kit and labeled RNAs were hybridized, washed, and scanned according to manufacturer's specifications (Affymetrix, Inc., Santa Clara, Calif.). Affymetrix Microarray Suite 5.0 software (MASS) was used to estimate transcript signal levels from scanned images (Affymetrix). The signals on each array were normalized to a trimmed mean value of 500, excluding lowest 2% and highest 2% of the signals. An Affymetrix probe set representing a unique Genbank sequence is referred as a probe or gene hereafter for convenience. To verify any errors in the expressions caused by image defects, the correlation coefficient of each array to an idealized distribution was determined where the idealized distribution is mean of all arrays. The genes are filtered from the remaining arrays using detection P value reported by MASS. The genes having P>0.065 in 95% of the arrays are eliminated and all other signals are included for statistical comparisons of classes.
The PARP1 gene is represented on the HG-U133A array by a single probe set with the identifier W208644_at”. All results in this report were generated based on the MASS expression signal intensities for this probe set and will be referred to as “PARP1”.
The PARP1 gene is represented on the HG-U133A array by a single probe set with the identifier “208644_at”. All results in this report were generated based on the MASS expression signal intensities for this probe set and will be referred to as “PARP1”. In addition, the seven genes, BRCA1, BRCA2, RAD51, MRE11, p53, PARP2 and MUCIN 16, are represented on the HG-U133A/B array set by 11 informative probe sets. Three probe sets were excluded from this analysis because they were considered to be non-responsive on the array.
RNA is evaluated for quality and integrity (via Agilent Bioanalyzer derived […] ratio and RNA integrity number (RIN)), purity (via absorbance ratio at A260/A280), and quantity (via absorbance at A260 or alternative assay (i.e. ribogreen)), Quantity and purity of cRNA synthesis product is assessed using UV absorbance. Quality of cRNA synthesis is assessed using either the Agilent Bioanalyzer or a MOPS agarose gel. Array quality is evaluated using a proprietary high throughput application by which arrays are evaluated against several strict objective standards such as 5′/3′ GAPDH ratio, signal/noise ratio. and background as well as over thirty additional metrics (e.g. outlier, vertical variance). Data generated throughout the process is managed within the quality system to ensure data integrity of the data.
23, 122, and 57 pathologically normal tissue samples were used to determine baseline expression of the PARP1 gene in endometroid, lung, and prostate tissue, respectively. The mean and 90%, 95%, 99%, and 99.9% upper confidence limits for an individual predicted value (UCLs) were calculated. Because we are assessing the likelihood that individual samples external to the normal set are within the baseline distribution, the prediction interval, rather than the confidence interval for the mean, was selected to estimate the expected range for future individual measurements. […]

[1] = Superior Temporal Gyrus (Brodmann Area 22)
[2] = Stomach, positive = up-regulated, negative = down-regulated

| PARP1 expression, Experiment Mean (Stomach) | PARP1 Fold change (FC) [2] | Compound | other results |
| --- | --- | --- | --- |
| – | – | CC(=O)Nc1ccc(O)cc1 [Acetaminophen] | PARP1 expression, Experiment Mean [1]: 290.49; PARP1 Fold change (FC) [1]: 1.28 |
| – | – | CC(C)NCC(O)COc1ccc(CC(N)=O)cc1 (centres unmarked) [Atenolol] | PARP1 expression, Experiment Mean (Ovary): 138.57; PARP1 Fold change (FC) (Ovary, negative = down-regulated): −1.22 |
| 176.85 | −1.24 | CC(C)c1c(C(=O)Nc2ccccc2)c(-c2ccccc2)c(-c2ccc(F)cc2)n1CC[C@@H](O)C[C@@H](O)CC(=O)O [Atorvastatin] | – |
| 228.75 | 1.27 | Estrogens | – |
